Test results reported in patent publication US7293985B2 (priority 1998, dated 2007).
Structures can show the parent of a compound that is named as a salt. Where two headings read alike, the source gives them in different places.

Legend:
[1] = tested on: Vesicular stomatitis virus (VSV); type: cell-based
physchem [2] = settings: pH 7
physchem [3] = settings: buffer
[4] = tested on: murine red blood cells (RBCs); settings: mouse, in vivo
Yersinia enterocolitica = type: cell-based
[5] = tested on: Staphylococcus epidermidis; type: cell-based
cell-free HIV-IIIB = type: cell-based; settings: for Log Kill / Log Titer: no PIC-1, GSH 30 mM
red blood cell membranes = settings: 3 mM Glutathione added to PRBCs
Description: The concentration of GSH was calculated based on the absorbance at 412 nm using a Beckman DU20 (Beckman, Irvine, Calif.) single wavelength spectrometer.

SMILES: O=S(=O)(O)CCS [MENSA, mercaptoethanesulfonic acid sodium salt]
- Log Kill [1]: 2.3 log

SMILES: O=C(CCNc1c2ccccc2nc2ccccc12)OCCN(CCCl)CCCl [PIC-1, β-alanine, N-(acridin-9-yl), 2-[bis(2-chloroethyl)amino]ethyl ester]
- half-life (physchem [2]): 32 min
- half-life (physchem [3]; pH 2.2): 450 min
- half-life (physchem [3]; pH 6): 25 min

SMILES: O=C(CCNc1c2ccccc2nc2ccccc12)NCCN(CCCl)CCCl [PIC-2, P-alanine, N-(acridin-9-yl), 2-[bis(2-chloroethyl)amino]ethyl amide]
- RBC survival compared to control [4]: substantially the same as control
- recovery or lifespan of treated RBCs compared to label-only controls [4]: No difference

SMILES: N[C@@H](CS)C(=O)O [cysteine]
- Log Kill (Yersinia enterocolitica): 0 log
- Log Titer (Yersinia enterocolitica): 7.4 log

SMILES: N[C@@H](CCC(=O)N[C@@H](CS)C(=O)NCC(=O)O)C(=O)O [glutathione]
- Log Kill [5]: 0 log
- Log Titer [5]: 7.5 log
- Log Kill (Yersinia enterocolitica): 0 log
- Log Titer (Yersinia enterocolitica): 7.4 log
- reduction of inactivation (Yersinia enterocolitica): 1 to 2 log kill
- recovery or lifespan of treated RBCs compared to label-only controls [4]: No difference
- reduction of HIV infectivity (cell-free HIV-IIIB; 30 mM glutathione alone (samples 2 and 4 compared to samples 1 and 3)): 0.3 to 0.6 logs
- Log Kill (cell-free HIV-IIIB; 12 hour incubation (sample 4)): 0.6 log
- Log Titer (cell-free HIV-IIIB; 12 hour incubation (sample 4)): 6.4 log
- Log Kill (cell-free HIV-IIIB; no incubation (sample 2)): 0.3 log
- Log Titer (cell-free HIV-IIIB; no incubation (sample 2)): 6.9 log
- Absorption 412 nm Supernatant (red blood cell membranes; Time 0 min): 0.33
- Absorption 412 nm Total (red blood cell membranes; Time 0 min): 0.230
- GSH Concentration Supernatant (red blood cell membranes; Time 0 min): 3.071 mM
- GSH Concentration Total (red blood cell membranes; Time 0 min): 5.286 mM
- Absorption 412 nm Supernatant (red blood cell membranes; Time 60 min): 0.318
- Absorption 412 nm Total (red blood cell membranes; Time 60 min): 0.227
- GSH Concentration Supernatant (red blood cell membranes; Time 60 min): 2.96 mM
- GSH Concentration Total (red blood cell membranes; Time 60 min): 5.217 mM
- Absorption 412 nm Supernatant (red blood cell membranes; Time 120 min): 0.312
- Absorption 412 nm Total (red blood cell membranes; Time 120 min): 0.231
- GSH Concentration Supernatant (red blood cell membranes; Time 120 min): 2.90 mM
- GSH Concentration Total (red blood cell membranes; Time 120 min): 5.308 mM
- Absorption 412 nm Supernatant (red blood cell membranes; Time 270 min): 0.306
- Absorption 412 nm Total (red blood cell membranes; Time 270 min): 0.213
- GSH Concentration Supernatant (red blood cell membranes; Time 270 min): 2.85 mM
- GSH Concentration Total (red blood cell membranes; Time 270 min): 4.898 mM
- Absorption 412 nm Supernatant (red blood cell membranes; Time 1080 min): 0.297
- Absorption 412 nm Total (red blood cell membranes; Time 1080 min): 0.227
- GSH Concentration Supernatant (red blood cell membranes; Time 1080 min): 2.77 mM
- GSH Concentration Total (red blood cell membranes; Time 1080 min): 5.217 mM
- Absorption 412 nm Supernatant (red blood cell membranes; Time 1440 min): 0.296
- Absorption 412 nm Total (red blood cell membranes; Time 1440 min): 0.220
- GSH Concentration Supernatant (red blood cell membranes; Time 1440 min): 2.76 mM
- GSH Concentration Total (red blood cell membranes; Time 1440 min): 5.058 mM
